Test [1] deals with Pseudomonas fluorescens A32 HPPD. In kind it is cell-based. The conditions noted are these: E. coli culture containing vector pRP C; for end concentration giving identical results (total absence of staining): compound in DMSO solution. From the text: pRP C: The vector pRP A (which is described in the application WO 96/38567), which contains a genomic DNA fragment and the encoding region of the Pseudomonas fluorescens A32 HPPD gene, was digested with NcoI, purified and then ligated into the expression vector pKK233-2 (Clontech) which itself had been digested with NcoI, the only cloning site of this vector. The orientation of the gene in the resulting vector pRP C, which allows expression under-the control of the trc promoter, was checked.
(§1) A YT-broth-type culture medium with 1% agarose (Gibco BRL ultra pure) and 5 mM L-tyrosine (Sigma), which contains the selection agent for the above vector pRP C is poured into 96-well plates at 100 μl per well. 10 μl of an E. coli culture in the exponential growth phase which contains the vector pRP C is applied to each well.
A series was established with identical culture medium containing different concentrations (0 mM to 14 mM) of 2-cyano-3-cyclopropyl-l-(2-methylsulphonyl-4-trifluoromethylphenyl)-propane-i,3-dione (EP 0 496 631) which was solubilized in water and brought to pH 7.5. This molecule is a diketonitrile, known as an efficient inhibitor of HPPD activity (Pallett, K. E. et al. 1997. Pestic. Sci. 50, 83-84).
The end concentrations of the two molecules in DMSO solution are 3.5 mM and 7 mM, respectively.

The next test concerns HPPD activity. The test can be described thus: In vivo activity of chimeric HPPDs (brown staining of isolated colonies). The test is classed as cell-based, E. coli. The conditions noted are these: scale from 1 to 10, 10 being the most intense, reflects HPPD activity. On the procedure: as §1
The brown staining was scored on a scale from 1 to 10, 10 being the most intense (as described in Example 1), by comparison with HPPDs derived from Arabidopsis thaliana (FAA) and Daucus carota (FCC).

As to `CCOc1c(S(=O)(=O)CC)ccc(C(=O)C2C(=O)CC(C)CC2=O)c1Cl` (stereo not shown) [2-(2-chloro-3-ethoxy-4-(ethyl-sulphonyl)benzoyl)-5-methyl-1,3-cyclohexadione], the “end concentration giving identical results (total absence of staining)” value in test [1] was found to be 7 mM.
On the same count and under the same terms, in the case of `CSc1ccc(C(=O)C(C#N)C(=O)C2CC2)c(S(C)(=O)=O)c1` (stereo not shown) [2-cyano-3-cyclopropyl-1-(2-methylsulphonyl-4-(methylthio)phenyl)-propane-1,3-dione] it was 3.5 mM.
As for `CS(=O)(=O)c1cc(C(F)(F)F)ccc1C(=O)C(C#N)C(=O)C1CC1` (stereo not drawn) [2-cyano-3-cyclopropyl-l-(2-methylsulphonyl-4-trifluoromethylphenyl)-propane-i,3-dione], in test [1] (YT broth, 1% agarose, 5 mM L-tyrosine, 16 hours at 37° C., compound solubilized in water, pH 7.5, series 0 mM to 14 mM), the “concentration at which a total absence of staining is observed” value came to 7 mM.

B1: FAA: HPPD derived from Arabidopsis thaliana, used for comparison (protein, UniProt P93836 1-445, looked up)
4-hydroxyphenylpyruvate …: MGHQNAAVSENQNHDDGAASSPGFKLVGFSKFVRKNPKSDKFKVKRFHHIEFWCGDATNVARRFSWGLGMRFSAKSDLSTGNMVHASYLLTSGDLRFLFTAPYSPSLSAGEIKPTTTASIPSFDHGSCRSFFSSHGLGVRAVAIEVEDAESAFSISVANGAIPSSPPIVLNEAVTIAEVKLYGDVVLRYVSYKAEDTEKSEFLPGFERVEDASSFPLDYGIRRLDHAVGNVPELGPALTYVAGFTGFHQFAEFTADDVGTAESGLNSAVLASNDEMVLLPINEPVHGTKRKSQIQTYLEHNEGAGLQHLALMSEDIFRTLREMRKRSSIGGFDFMPSPPPTYYQNLKKRVGDVLSDDQIKECEELGILVDRDDQGTLLQIFTKPLGDRPTIFIEIIQRVGCMMKDEEGKAYQSGGCGGFGKGNFSELFKSIEEYEKTLEAKQLVG
For B1, in the test with HPPD activity, the brown staining score turned out to be 10.

For the origin of these results see patent US6768044B1, “Chimeric hydroxyl-phenyl pyruvate dioxygenase, DNA sequence and method for obtaining plants containing such a gene, with herbicide tolerance” (priority 2000, dated 2004).
